Laboratory results published in patent publication US20230116972A1, “CD38 MODULATORS AND METHODS OF USE THEREOF” (Cytokinetics, Inc., priority 2021, published 2023).
pIC50: −log10 of the molar value. Read-outs that look alike come from different tables or passages of the source.

Experiments:
Type in all cases: in vitro ADME
[1] = molecular target: T1, CYP3A4 (Homo sapiens, UniProt P08684); experiment: direct inhibition of CYP450 in human liver microsomes (midazolam and testosterone probes)
T1 construct: from tissue; host or cells: human liver microsomes (pooled in the time-dependent assay)
T1 sequence (P08684 whole entry): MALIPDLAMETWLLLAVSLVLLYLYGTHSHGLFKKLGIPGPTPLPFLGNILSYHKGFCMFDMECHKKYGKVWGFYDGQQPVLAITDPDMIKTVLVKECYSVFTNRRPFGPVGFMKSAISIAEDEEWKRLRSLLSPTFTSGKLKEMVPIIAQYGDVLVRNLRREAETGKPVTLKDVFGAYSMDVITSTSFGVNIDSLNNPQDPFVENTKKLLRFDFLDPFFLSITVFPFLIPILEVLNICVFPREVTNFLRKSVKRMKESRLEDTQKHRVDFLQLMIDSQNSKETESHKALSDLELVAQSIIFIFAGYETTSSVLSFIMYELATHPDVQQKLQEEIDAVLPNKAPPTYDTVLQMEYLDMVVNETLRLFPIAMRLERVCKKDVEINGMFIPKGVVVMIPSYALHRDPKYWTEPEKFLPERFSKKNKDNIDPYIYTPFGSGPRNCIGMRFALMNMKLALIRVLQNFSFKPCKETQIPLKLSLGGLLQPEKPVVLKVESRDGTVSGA
Method: (§1) Direct inhibition: […] A Perspective of the Pharmaceutical Research and Manufacturers of America”, Drug Metabolism and Disposition, 37 (7): 1355, 2009). For 3A4, the % activity was measured using both midazolam and testosterone as probes. Each compound at 3, 10, and 50 μM was incubated with HLM, NADPH and CYP isoenzyme specific probe substrates at 37° C. Inhibition of the probe substrate metabolism was quantified using LC/MS/MS. […] Known chemical inhibitors specific for the individual CYP isoenzymes were evaluated in parallel as positive controls and these compounds produced CYP inhibition consistent with published results (Walsky & Obach RS. “Validated assays for human cytochrome P450 activities”. Drug Metab Dispos. 32(6):647-60, 2004). Note that, in Tables 6 and 7, the “Compound No” corresponds to the compound numbers in Table 1.

[2] = molecular target: T2, CYP2D6 (Homo sapiens, UniProt P10635); experiment: direct inhibition of CYP450 in human liver microsomes; conditions: for activity at 3 µM / activity at 10 µM / activity at 50 µM: % of non-inhibited control, read-out: CYP2D6 T0 % activity; for pIC50: estimated from 3, 10, 50 uM, read-out: CYP2D6 T0 estimated IC50
T2 construct: from tissue; host or cells: human liver microsomes (pooled in the time-dependent assay)
T2 sequence (P10635 whole entry): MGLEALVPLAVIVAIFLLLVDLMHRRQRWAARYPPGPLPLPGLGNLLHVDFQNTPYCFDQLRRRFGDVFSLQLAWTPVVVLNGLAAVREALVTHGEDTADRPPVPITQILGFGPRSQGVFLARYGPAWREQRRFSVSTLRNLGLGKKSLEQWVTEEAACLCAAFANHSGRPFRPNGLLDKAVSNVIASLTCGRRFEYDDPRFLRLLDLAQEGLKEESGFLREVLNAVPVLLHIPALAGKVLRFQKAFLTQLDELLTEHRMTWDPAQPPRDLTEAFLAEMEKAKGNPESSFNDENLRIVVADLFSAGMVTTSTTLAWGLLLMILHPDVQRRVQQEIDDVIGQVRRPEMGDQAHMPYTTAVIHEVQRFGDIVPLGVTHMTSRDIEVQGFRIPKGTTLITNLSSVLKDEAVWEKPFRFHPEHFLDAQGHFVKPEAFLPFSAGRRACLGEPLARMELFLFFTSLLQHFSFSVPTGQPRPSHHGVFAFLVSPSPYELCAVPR
Method: as §1

[3] = molecular target: T3, CYP2B6 (Homo sapiens, UniProt P20813); experiment: as above; conditions: for activity at 3 µM / activity at 10 µM / activity at 50 µM: % of non-inhibited control, read-out: CYP2B6 T0 % activity; for pIC50: estimated from 3, 10, 50 uM, read-out: CYP2B6 T0 estimated IC50
T3 construct: from tissue; host or cells: human liver microsomes (pooled in the time-dependent assay)
T3 sequence (P20813 1-491): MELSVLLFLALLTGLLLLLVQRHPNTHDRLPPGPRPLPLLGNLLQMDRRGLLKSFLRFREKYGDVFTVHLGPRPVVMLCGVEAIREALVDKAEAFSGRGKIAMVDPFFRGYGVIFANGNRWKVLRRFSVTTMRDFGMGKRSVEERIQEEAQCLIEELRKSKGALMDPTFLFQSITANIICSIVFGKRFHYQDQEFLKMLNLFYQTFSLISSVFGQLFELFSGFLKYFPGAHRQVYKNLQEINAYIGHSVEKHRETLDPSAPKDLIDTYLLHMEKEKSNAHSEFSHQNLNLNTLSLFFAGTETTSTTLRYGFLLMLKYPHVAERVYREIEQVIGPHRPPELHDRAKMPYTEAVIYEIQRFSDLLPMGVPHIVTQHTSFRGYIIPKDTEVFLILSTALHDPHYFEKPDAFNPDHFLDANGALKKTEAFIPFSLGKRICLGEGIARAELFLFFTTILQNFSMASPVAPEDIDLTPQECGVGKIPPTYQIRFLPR
Method: as §1

[4] = molecular target: T4, CYP2C9 (Homo sapiens, UniProt P11712); experiment: as above; conditions: for activity at 3 µM / activity at 10 µM / activity at 50 µM: % of non-inhibited control, read-out: CYP2C9 T0 % activity; for pIC50: estimated from 3, 10, 50 uM, read-out: CYP2C9 T0 estimated IC50
T4 construct: from tissue; host or cells: human liver microsomes (pooled in the time-dependent assay)
T4 sequence (P11712 whole entry): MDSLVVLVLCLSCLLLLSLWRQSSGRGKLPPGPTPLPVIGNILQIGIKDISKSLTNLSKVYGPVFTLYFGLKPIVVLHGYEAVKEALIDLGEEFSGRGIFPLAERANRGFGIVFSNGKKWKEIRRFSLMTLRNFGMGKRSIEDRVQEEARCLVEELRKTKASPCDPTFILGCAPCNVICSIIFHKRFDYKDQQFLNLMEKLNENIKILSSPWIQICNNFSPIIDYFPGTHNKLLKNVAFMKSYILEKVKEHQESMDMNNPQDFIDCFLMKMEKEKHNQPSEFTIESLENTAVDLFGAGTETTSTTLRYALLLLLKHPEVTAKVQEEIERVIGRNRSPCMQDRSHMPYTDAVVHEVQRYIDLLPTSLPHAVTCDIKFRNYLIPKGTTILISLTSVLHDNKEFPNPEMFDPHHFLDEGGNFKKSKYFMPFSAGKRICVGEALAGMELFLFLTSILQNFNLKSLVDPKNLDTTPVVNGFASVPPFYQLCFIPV
Method: as §1

[5] = molecular target: T5, CYP2C19 (Homo sapiens, UniProt P33261); experiment: as above; conditions: for activity at 3 µM / activity at 10 µM / activity at 50 µM: % of non-inhibited control, read-out: CYP2C19 T0 % activity; for pIC50: estimated from 3, 10, 50 uM, read-out: CYP2C19 T0 estimated IC50
T5 construct: from tissue; host or cells: human liver microsomes (pooled in the time-dependent assay)
T5 sequence (P33261 whole entry): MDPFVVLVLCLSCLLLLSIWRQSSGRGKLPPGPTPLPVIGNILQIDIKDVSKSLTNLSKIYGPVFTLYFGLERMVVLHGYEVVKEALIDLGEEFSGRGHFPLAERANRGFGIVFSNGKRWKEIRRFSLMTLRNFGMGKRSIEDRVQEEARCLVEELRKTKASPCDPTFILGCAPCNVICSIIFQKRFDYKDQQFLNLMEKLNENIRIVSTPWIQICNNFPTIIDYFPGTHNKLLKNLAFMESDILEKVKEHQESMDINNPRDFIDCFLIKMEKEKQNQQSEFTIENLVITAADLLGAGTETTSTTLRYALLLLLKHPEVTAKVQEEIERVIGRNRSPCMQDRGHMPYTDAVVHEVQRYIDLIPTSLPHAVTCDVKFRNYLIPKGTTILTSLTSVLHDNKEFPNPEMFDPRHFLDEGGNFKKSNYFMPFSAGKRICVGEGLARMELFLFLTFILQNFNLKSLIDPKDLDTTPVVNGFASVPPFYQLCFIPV
Method: as §1

[6] = molecular target: T6, CYP1A2 (Homo sapiens, UniProt P05177); experiment: as above
T6 construct: from tissue; host or cells: human liver microsomes (pooled in the time-dependent assay)
T6 sequence (P05177 1-516): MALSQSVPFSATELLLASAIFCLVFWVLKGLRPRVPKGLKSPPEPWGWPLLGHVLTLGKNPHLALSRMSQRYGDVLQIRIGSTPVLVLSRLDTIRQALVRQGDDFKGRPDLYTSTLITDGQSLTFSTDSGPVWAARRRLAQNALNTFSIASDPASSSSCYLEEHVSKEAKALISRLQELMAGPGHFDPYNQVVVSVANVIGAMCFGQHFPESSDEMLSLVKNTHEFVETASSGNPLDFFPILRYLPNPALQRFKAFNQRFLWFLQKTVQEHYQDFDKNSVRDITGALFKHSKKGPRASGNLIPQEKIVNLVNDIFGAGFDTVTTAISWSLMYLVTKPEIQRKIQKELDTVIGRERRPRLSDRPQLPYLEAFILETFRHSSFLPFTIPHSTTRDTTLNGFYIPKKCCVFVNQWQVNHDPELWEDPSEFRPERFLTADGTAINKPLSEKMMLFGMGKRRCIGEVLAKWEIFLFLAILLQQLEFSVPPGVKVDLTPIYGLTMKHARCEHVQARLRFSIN
Method: as §1

[7] = midazolam probe, read-out: CYP3A4-M T0 % activity
[8] = testosterone probe, read-out: CYP3A4-T T0 % activity
[9] = midazolam probe, read-out: CYP3A4-M T0 estimated IC50
[10] = testosterone probe, read-out: CYP3A4-T T0 estimated IC50

Row | Structure (SMILES) | activity at 3 µM [1, 7] [%] | activity at 3 µM [1, 8] [%] | activity at 10 µM [1, 7] [%] | activity at 10 µM [1, 8] [%] | activity at 50 µM [1, 7] [%] | activity at 50 µM [1, 8] [%] | pIC50 [1, 9] | pIC50 [1, 10] | activity at 3 µM [2] [%] | activity at 10 µM [2] [%] | activity at 50 µM [2] [%] | pIC50 [2] | activity at 3 µM [3] [%] | activity at 10 µM [3] [%] | activity at 50 µM [3] [%] | pIC50 [3] | activity at 3 µM [4] [%] | activity at 10 µM [4] [%] | activity at 50 µM [4] [%] | pIC50 [4] | other results
1 | [2H]c1nc([2H])n(-c2nc(C)cc(C(=O)N[C@H]3CC[C@H](OCCOC)CC3)n2)c1[2H] [Comparator Compound A, reference compound] | 98 | 100 | 99 | 97 | 91 | 103 | < 4.30 | < 4.30 | 95 | 82 | 42 | > 4.30 | 103 | 98 | 57 | < 4.30 | 88 | 64 | 24 | > 4.30 | activity at 3 µM [5]: 77%; activity at 10 µM [5]: 49%; activity at 50 µM [5]: 17%; pIC50 [5]: ~5.00; activity at 3 µM ([6]; 3 uM, human liver microsomes, % of non-inhibited control, read-out: CYP1A2 T0 % activity): 98%; activity at 10 µM ([6]; 10 uM, human liver microsomes, % of non-inhibited control, read-out: CYP1A2 T0 % activity): 98%; activity at 50 µM ([6]; 50 uM, human liver microsomes, % of non-inhibited control, read-out: CYP1A2 T0 % activity): 92%; pIC50 ([6]; human liver microsomes, estimated from 3, 10, 50 uM, read-out: CYP1A2 T0 estimated IC50): < 4.30
2 | CO[C@H]1CC[C@H](NC(=O)c2nccc(-n3ccnc3)n2)CC1 [Compound 145, 4-(1H-Imidazol-1-yl)-N-((1r,4r)-4-methoxycyclohexyl)pyrimidine-2-carboxamide] | 99 | 96 | 89 | 98 | 75 | 95 | < 4.30 | < 4.30 | 93 | 73 | 47 | > 4.30 | 101 | 98 | 99 | < 4.30 | 97 | 99 | 96 | < 4.30 | activity at 3 µM [5]: 92%; activity at 10 µM [5]: 93%; activity at 50 µM [5]: 89%; pIC50 [5]: < 4.30; pIC50 [6]: < 4.30; activity at 3 µM ([6]; human, microsomes): 94%; activity at 10 µM ([6]; human, microsomes): 92%; activity at 50 µM ([6]; human, microsomes): 79%
